“Also recorded” adds a separate entry of the source.
Tests used:
[1] = molecular target: recombinant human WT SOD1 (Homo sapiens, UniProt P00441); format: binding
WT DJ-1 = WT DJ-1 (Homo sapiens, UniProt Q99497); format: binding
DJ-1 [2] = molecular target: T1, DJ-1 (Homo sapiens, UniProt Q99497); format: binding
DJ-1 [3] = molecular target: T1, DJ-1; format: binding; remark: listed apart in the source
[4] = in vivo; cited from earlier work

Chain of WT DJ-1 (Q99497 whole entry): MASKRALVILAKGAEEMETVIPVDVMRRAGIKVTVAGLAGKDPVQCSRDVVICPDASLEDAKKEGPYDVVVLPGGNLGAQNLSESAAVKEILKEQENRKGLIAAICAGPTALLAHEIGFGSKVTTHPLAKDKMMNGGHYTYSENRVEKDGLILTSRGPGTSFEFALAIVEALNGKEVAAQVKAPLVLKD
T1 sequence (Q99497 whole entry): as above
Chain of recombinant human WT SOD1 (P00441 2-154): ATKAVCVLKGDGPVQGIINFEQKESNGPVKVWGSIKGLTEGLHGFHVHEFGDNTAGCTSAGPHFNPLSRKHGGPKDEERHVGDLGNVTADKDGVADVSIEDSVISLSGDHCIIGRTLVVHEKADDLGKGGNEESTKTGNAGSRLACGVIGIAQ

Question: For `OCC1(CO)CSSC1` [1,2-dithiolane-4,4-dimethanol], which “covalent dimerization of SOD1 (change in mass of covalently linked SOD1 dimers)” value [1] is on record?
Answer: capable of covalently dimerizing SOD1

Question: Which “covalent dimerization of DJ-1” value (WT DJ-1) does the source give for `[O-][S+]1CCCCS1` (stereo not drawn) [NSC56224, 1-oxo-1,2-dithiane] here?
Answer: identified as a covalent dimerizer of DJ-1

Question: And the “denaturation temperature of DJ-1 (thermal stability)” value (DJ-1 [2])?
Answer: increase the measured denaturation temperature of DJ-1 relative to untreated DJ-1

Question: What about the “covalent dimerization of SOD1 (change in mass of covalently linked SOD1 dimers)” value [1] of the same compound?
Answer: capable of covalently dimerizing SOD1

Question: And the “extent of cross-linking of SOD1 monomers” value [1]?
Answer: able to cross-link the majority of SOD1 monomers in the sample

Question: And the “site of covalent linkage in DJ-1 dimer” value (DJ-1 [3])?
Answer: covalently linked DJ-1 dimers at Cys53; also recorded: two trypsin digest fragments of DJ-1 containing Cys53 (underlined) linked by NSC56224

Question: What does the source list for `NC(=O)NN=C1CSSC1` [NSC72268]?
Answer: covalent dimerization of DJ-1 (WT DJ-1): identified as a specific DJ-1 covalent dimerizer; also recorded: specific covalent dimerizer of DJ-1; denaturation temperature of DJ-1 (thermal stability) (DJ-1 [2]): increase the measured denaturation temperature of DJ-1 relative to untreated DJ-1

Question: For `CC(C)C[C@H](NC(=O)[C@H](Cc1ccccc1)NC(=O)c1cnccn1)B(O)O` [bortezomib], which LD100 [4] is on record?
Answer: < 250 µg/kg

— US10711261B2 (priority 2015, dated 2020)
